The numbers were not newly measured in patent US20240016170A1, “A ZINC FORTIFIED TEA COMPOSITION” (EKATERRA TEA MANUFACTURING USA LLC, priority 2020, published 2024), which cites them from elsewhere.

For this series the following is noted: water at 25° C.

For the molecule `[O]=[Zn]` [zinc oxide], the solubility is 0.0004 g/100 g water.
